Measurements: PubChem BioAssay AID2060908 (Molecular Pharmacology Branch, DTP, NCI, 2025)

Test system: 186277-243-T-J2-PDC complex spheroids, viability
Test: Anticancer human tumor 186277-243-T-J2-PDC patient-derived colon adenocarcinoma cell line growth inhibition [RAS]
Details: for IC50: curve of first compound; for viability, T/C: stronger effect = lower value
In short: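 Agents were tested in combination matrices in half-log decrements from a top concentration at or near clinical Cmax (10 microM if undetermined). Targets were multi-cell spheroids of tumour lines plus HUVEC and MSC stromal cells.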

[1] = second compound 0.00316 µM, first compound 0.0316 µM
[2] = second compound 0.00316 µM, first compound 0.1 µM
[3] = second compound 0.00316 µM, first compound 0.316 µM
[4] = second compound 0.00316 µM, first compound 1 µM
[5] = second compound 0.00316 µM, first compound 3.16 µM
[6] = second compound 0.00316 µM, first compound 10 µM
[7] = second compound 0.01 µM, first compound 0.0316 µM
[8] = second compound 0.01 µM, first compound 0.1 µM
[9] = second compound 0.01 µM, first compound 0.316 µM
[10] = second compound 0.01 µM, first compound 1 µM
[11] = second compound 0.01 µM, first compound 3.16 µM
[12] = second compound 0.01 µM, first compound 10 µM
[13] = second compound 0.0316 µM, first compound 0.0316 µM
[14] = second compound 0.0316 µM, first compound 0.1 µM
[15] = second compound 0.0316 µM, first compound 0.316 µM
[16] = second compound 0.0316 µM, first compound 1 µM
[17] = second compound 0.0316 µM, first compound 3.16 µM
[18] = second compound 0.0316 µM, first compound 10 µM
[19] = second compound 0.1 µM, first compound 0.0316 µM
[20] = second compound 0.1 µM, first compound 0.1 µM
[21] = second compound 0.1 µM, first compound 0.316 µM
[22] = second compound 0.1 µM, first compound 1 µM
[23] = second compound 0.1 µM, first compound 3.16 µM
[24] = second compound 0.1 µM, first compound 10 µM
[25] = second compound 0.316 µM, first compound 0.0316 µM
[26] = second compound 0.316 µM, first compound 0.1 µM
[27] = second compound 0.316 µM, first compound 0.316 µM
[28] = second compound 0.316 µM, first compound 1 µM
[29] = second compound 0.316 µM, first compound 3.16 µM
[30] = second compound 0.316 µM, first compound 10 µM
[31] = second compound 1 µM, first compound 0.0316 µM
[32] = second compound 1 µM, first compound 0.1 µM
[33] = second compound 1 µM, first compound 0.316 µM
[34] = second compound 1 µM, first compound 1 µM
[35] = second compound 1 µM, first compound 3.16 µM
[36] = second compound 1 µM, first compound 10 µM
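Note: spheroids exposed to compounds for 7 days before viability read.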

CC1(O)CCCC1n1c(=O)c(C(F)F)cc2cnc(NC3CCN(S(C)(=O)=O)CC3)nc21 (stereo unspecified) + C=CC(=O)N1CCN(c2nc(OCC3CCCN3C)nc3c(F)c(-c4nc(N)cc(C)c4C(F)(F)F)c(Cl)cc23)C(C)C1
IC50 (second compound 0.00316 µM): 4.05 µM
IC50 (second compound 0.01 µM): 4.92 µM
IC50 (second compound 0.0316 µM): 4.81 µM
IC50 (second compound 0.1 µM): 5.15 µM
IC50 (second compound 0.316 µM): 4.83 µM
IC50 (second compound 1 µM): 4.94 µM
viability, T/C [1]: 95.5%
viability, T/C [2]: 113%
viability, T/C [3]: 101%
viability, T/C [4]: 99.3%
viability, T/C [5]: 63%
viability, T/C [6]: 2.71%
viability, T/C [7]: 92.8%
viability, T/C [8]: 96.8%
viability, T/C [9]: 93.5%
viability, T/C [10]: 96.8%
viability, T/C [11]: 79.3%
viability, T/C [12]: 2.97%
viability, T/C [13]: 101%
viability, T/C [14]: 135%
viability, T/C [15]: 87.8%
viability, T/C [16]: 107%
viability, T/C [17]: 77.5%
viability, T/C [18]: 2.9%
viability, T/C [19]: 95.3%
viability, T/C [20]: 109%
viability, T/C [21]: 105%
viability, T/C [22]: 89.9%
viability, T/C [23]: 87%
viability, T/C [24]: 2.79%
viability, T/C [25]: 91.3%
viability, T/C [26]: 118%
viability, T/C [27]: 88.1%
viability, T/C [28]: 84.1%
viability, T/C [29]: 81.8%
viability, T/C [30]: 2%
viability, T/C [31]: 117%
viability, T/C [32]: 123%
viability, T/C [33]: 94.9%
viability, T/C [34]: 115%
viability, T/C [35]: 80.7%
viability, T/C [36]: 1.52%

CCC(CC)c1cc(NC2CCC(N)C2)n2nccc2n1 (stereo unspecified) + C=CC(=O)N1CCN(c2nc(OCC3CCCN3C)nc3c(F)c(-c4nc(N)cc(C)c4C(F)(F)F)c(Cl)cc23)C(C)C1
IC50 (second compound 0.00316 µM): 1.86 µM
IC50 (second compound 0.01 µM): 1.67 µM
IC50 (second compound 0.0316 µM): 1.8 µM
IC50 (second compound 0.1 µM): 1.55 µM
IC50 (second compound 0.316 µM): 1.81 µM
IC50 (second compound 1 µM): 1.6 µM
viability, T/C [1]: 91.8%
viability, T/C [2]: 97.2%
viability, T/C [3]: 89.5%
viability, T/C [4]: 117%
viability, T/C [5]: 7.95%
viability, T/C [6]: 0.31%
viability, T/C [7]: 78%
viability, T/C [8]: 103%
viability, T/C [9]: 76.2%
viability, T/C [10]: 84.2%
viability, T/C [11]: 7.63%
viability, T/C [12]: 0.49%
viability, T/C [13]: 86.4%
viability, T/C [14]: 93.5%
viability, T/C [15]: 93.8%
viability, T/C [16]: 115%
viability, T/C [17]: 5.08%
viability, T/C [18]: 0.32%
viability, T/C [19]: 93%
viability, T/C [20]: 102%
viability, T/C [21]: 77.5%
viability, T/C [22]: 79%
viability, T/C [23]: 3.18%
viability, T/C [24]: 0.31%
viability, T/C [25]: 81%
viability, T/C [26]: 94.3%
viability, T/C [27]: 117%
viability, T/C [28]: 109%
viability, T/C [29]: 2.74%
viability, T/C [30]: 0.35%
viability, T/C [31]: 102%
viability, T/C [32]: 91.8%
viability, T/C [33]: 101%
viability, T/C [34]: 82.9%
viability, T/C [35]: 2.87%
viability, T/C [36]: 0.37%

CCN1CCN(Cc2ccc(Nc3ncc(F)c(-c4cc(F)c5nc(C)n(C(C)C)c5c4)n3)nc2)CC1 + C=CC(=O)N1CCN(c2nc(OCC3CCCN3C)nc3c(F)c(-c4nc(N)cc(C)c4C(F)(F)F)c(Cl)cc23)C(C)C1
IC50 (second compound 0.00316 µM): > 1 µM
IC50 (second compound 0.01 µM): > 1 µM
IC50 (second compound 0.0316 µM): > 1 µM
IC50 (second compound 0.1 µM): > 1 µM
IC50 (second compound 0.316 µM): > 1 µM
IC50 (second compound 1 µM): > 1 µM
viability, T/C (second compound 0.00316 µM, first compound 0.00316 µM): 136%
viability, T/C (second compound 0.00316 µM, first compound 0.01 µM): 129%
viability, T/C [1]: 141%
viability, T/C [2]: 114%
viability, T/C [3]: 125%
viability, T/C [4]: 99.5%
viability, T/C (second compound 0.01 µM, first compound 0.00316 µM): 87.9%
viability, T/C (second compound 0.01 µM, first compound 0.01 µM): 108%
viability, T/C [7]: 127%
viability, T/C [8]: 99.7%
viability, T/C [9]: 121%
viability, T/C [10]: 92.9%
viability, T/C (second compound 0.0316 µM, first compound 0.00316 µM): 94.6%
viability, T/C (second compound 0.0316 µM, first compound 0.01 µM): 107%
viability, T/C [13]: 119%
viability, T/C [14]: 154%
viability, T/C [15]: 114%
viability, T/C [16]: 101%
viability, T/C (second compound 0.1 µM, first compound 0.00316 µM): 101%
viability, T/C (second compound 0.1 µM, first compound 0.01 µM): 112%
viability, T/C [19]: 142%
viability, T/C [20]: 149%
viability, T/C [21]: 138%
viability, T/C [22]: 79.3%
viability, T/C (second compound 0.316 µM, first compound 0.00316 µM): 90.3%
viability, T/C (second compound 0.316 µM, first compound 0.01 µM): 106%
viability, T/C [25]: 117%
viability, T/C [26]: 115%
viability, T/C [27]: 152%
viability, T/C [28]: 97.8%
viability, T/C (second compound 1 µM, first compound 0.00316 µM): 117%
viability, T/C (second compound 1 µM, first compound 0.01 µM): 112%
viability, T/C [31]: 122%
viability, T/C [32]: 140%
viability, T/C [33]: 135%
viability, T/C [34]: 105%
